Laboratory results taken from patent US6506737B1, “Antimicrobial phosphonium and sulfonium polyhalide compositions” (Ecolab, Inc., priority 2000, dated 2003).

What was measured:
S. aureus = test: Biocidal efficacy, log reduction of S. aureus (Table 2); type: cell-based, Staphylococcus aureus; details: total active 0.12-0.89 mmole/liter as listed per composition; for Log Reduction (S. aureus) (30 seconds): 30 seconds exposure; for Log Reduction (S. aureus) (60 seconds): 60 seconds exposure
[1] = pH of the test solution (Table 3); type: physicochemical; details: test substance at 12 grams per gallon in sterile deionized water
Experimental: (§1) A 4% solution of trimethyl sulfonium triiodide and a solution of 20% hexadecyl tributyl phosphonium diiodochloride were tested at a concentration of 12 grams per gallon in sterile deionized water against Staphylococcus aureus (ATCC 6538).

[2] = system: Staphylococcus aureus (ATCC 6538); test: Antimicrobial efficacy, log reduction at 12 grams per gallon in sterile deionized water (Table 3); type: cell-based; details: ambient temperature
Experimental: as §1

Structure (SMILES)	Log Reduction (S. aureus) (30 seconds) (S. aureus)	Log Reduction (S. aureus) (60 seconds) (S. aureus)	pH [1]	Log Reduction ([2]; exposure time 15 seconds)	Log Reduction ([2]; exposure time 30 seconds)	Log Reduction ([2]; exposure time 5 minutes, listed as 20% hexadecyl tributyl phosphonium diiodochloride)	Log Reduction ([2]; exposure time 30 seconds, listed as 4% trimethyl sulfonium triiodide)	Log Reduction ([2]; exposure time 5 minutes)
C[N+](C)(C)CCO.Cl[I-]I [choline chloro diiodide]	>6.9	>6.9	–	–	–	–	–	–
CCCC[N+](CCCC)(CCCC)CCCC.Cl[I-]I [tetrabutyl ammonium chloro diiodide]	>6.4	>6.4	–	–	–	–	–	–
C[N+](C)(C)C.Cl[I-]I [tetramethyl ammonium chloro diiodide]	4.0	>6.8	–	–	–	–	–	–
CCCCCCCCCCCCCCCC[P+](CCCC)(CCCC)CCCC.Cl[I-]I [tributyl hexadecyl phosphonium chloro diiodide]	5.0	6.2	4.61	3.74	4.98	6.21	–	–
C[S+](C)C.I[I-]I [trimethyl sulfonium triiodide]	>7.0	>7.0	2.52	4.67	–	–	>6.95	>6.95
